Values after ≈ are worked out from the molar mass of the structure shown. Like-named read-outs stand apart in the source and are kept apart here. Values belong to the molecule of their own block, whether it stands above or below them. Bridge positions count the residues as written; N and C are the ends. Square brackets hold non-standard residues; d marks the D form. Peptide text beside a SMILES is read from it. * marks the point of attachment. X1 = CC[C@H](C)CCCCC(=O)*; Dab = NCC[C@H](N)C(=O)O
Tests used:
[1] = test system: MDR P. aeruginosa PA 919; assay: microbe, parasite or virus in culture; assay type: cell-based, Pseudomonas aeruginosa; details: microdilution, Mueller-Hinton broth, 18 h at 37°C, read visually; for MIC: conventional antibiotics, 2–5 10^5 CFU/ml, at least three repeats (n = 3)
How it was run: (§1)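 Inoculum 2–5 10^5 CFU/ml in Mueller-Hinton broth, compounds twofold serially diluted, polypropylene microtiter plates. Strains are MDR isolates from clinical and municipal waste water.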

[2] = test system: MDR P. aeruginosa PA 910; assay: microbe, parasite or virus in culture; assay type: cell-based, Pseudomonas aeruginosa
How it was run: as §1

[3] = test system: P. aeruginosa PA01-wt; assay: microbe, parasite or virus in culture; assay type: cell-based, Pseudomonas aeruginosa; details: microdilution, Mueller-Hinton broth, 18 h at 37°C, read visually; for MIC: conventional antibiotics, 2–5 10^5 CFU/ml, at least three repeats (n = 3)
[4] = test system: MDR P. aeruginosa PA253; assay: microbe, parasite or virus in culture; assay type: cell-based, Pseudomonas aeruginosa; details: microdilution, Mueller-Hinton broth, 18 h at 37°C, read visually; for MIC: conventional antibiotics, 2–5 10^5 CFU/ml, at least three repeats (n = 3)
How it was run: as §1

[5] = test system: MDR isolate of P. aeruginosa (PA 910); details: checkerboard, MHb
[6] = test system: MDR-PA919; assay type: cell-based, Pseudomonas aeruginosa; details: peptide + polymyxin B; checkerboard; strain comparison (Table 7)
Experimental: (§2) The checkerboard assay was used to determine the fractional inhibitory concentrations (FICs), following the protocol described in Koneman’s Color Atlas and Textbook of Diagnostic Microbiology ([Winn et al., 2006]). Briefly, combinations of peptides and antibiotics were prepared in 96-well plates (polypropylene, Corning) in a twofold dilution series. After the addition of a log-phase bacterial inoculum of 2–5 × 10^5 CFU/ml, plates were incubated at 37°C for 18 h. The FICs were determined by visual inspection and the effects of the combinations were determined using the FICs. The FIC was computed by adding two partial FIC values, FICA—the MIC of drug A, tested in combination with drug B divided by the MIC of drug A, tested alone and FICB—the MIC of drug B, tested in combination with drug A divided by the MIC of drug B, tested alone [FIC = FICA + FICB = (MICAB/MICA) + (MICBA/MICB), where MICA and MICB are the MICs of drugs A and B alone, respectively, and MICAB and MICBA are the MIC concentrations of the drugs in combination]. […]

[7] = test system: MDR-PA253; assay type: cell-based, Pseudomonas aeruginosa; details: peptide + polymyxin B; checkerboard; strain comparison (Table 7)
Experimental: as §2

[8] = test system: MDR P. aeruginosa PA 927; assay: microbe, parasite or virus in culture; assay type: cell-based, Pseudomonas aeruginosa; details: conventional antibiotics, microdilution, Mueller-Hinton broth, 2–5 10^5 CFU/ml, 18 h at 37°C, read visually, at least three repeats (n = 3)
How it was run: as §1

[9] = test system: MDR P. aeruginosa PA 923; assay: microbe, parasite or virus in culture; assay type: cell-based, Pseudomonas aeruginosa; details: conventional antibiotics, microdilution, Mueller-Hinton broth, 2–5 10^5 CFU/ml, 18 h at 37°C, read visually, at least three repeats (n = 3)
How it was run: as §1

[10] = test system: MDR P. aeruginosa PA 915; assay: microbe, parasite or virus in culture; assay type: cell-based, Pseudomonas aeruginosa; details: conventional antibiotics, microdilution, Mueller-Hinton broth, 2–5 10^5 CFU/ml, 18 h at 37°C, read visually, at least three repeats (n = 3)
How it was run: as §1

Molecule: CC[C@H](C)[C@H](NC(=O)[C@H](CCCNC(=N)N)NC(=O)[C@H](C)NC(=O)[C@H](CC(C)C)NC(=O)[C@@H](N)CCCNC(=N)N)C(=O)N[C@H](C(=O)N[C@H](C(=O)N[C@H](C(=O)N[C@@H](CCCNC(=N)N)C(=O)N[C@H](C(=O)N[C@@H](CCCNC(=N)N)C(=O)N[C@@H](CCCNC(=N)N)C(N)=O)C(C)C)[C@@H](C)CC)C(C)C)C(C)C [Peptide R11] (H-RLARIVVIRVRR-NH2)
MIC against MDR isolates of PA, PA919 ([1]; short AMPs, triplicate (n = 3)): 32 µM
MIC against PA910 in μM (peptides, Table 4) ([2]; peptide alone, as listed in the FIC table): 64 µM
MIC against PA01 wt ([3]; short AMPs, triplicate (n = 3)): 16 µM (≈ 24.1 µg/mL)
MIC against MDR isolates of PA, PA253 ([4]; short AMPs, triplicate (n = 3)): 64 µM
FIC mean (SD), combination with KAN ([5]; confirmation study, peptide + kanamycin, Indopt versions 1/8 MHb, mean of at least three measurements (n = 3), SD in brackets): 0.75 (0.17)
FIC mean (SD), combination with TET ([5]; confirmation study, peptide + tetracycline, Indopt versions 1/8 MHb, mean of at least three measurements (n = 3), SD in brackets): 0.43 (0.12)
FIC, combination with AMI ([5]; peptide + amikacin, for the Indopt versions 1/8 MHb, 2–5 × 10^5 CFU/ml, 37°C, 18 h, visual, determined once (n = 1)): 2
FIC, combination with CEF ([5]; peptide + cefepime, for the Indopt versions 1/8 MHb, 2–5 × 10^5 CFU/ml, 37°C, 18 h, visual, determined once (n = 1)): 2
FIC, combination with CET ([5]; peptide + ceftazidime, for the Indopt versions 1/8 MHb, 2–5 × 10^5 CFU/ml, 37°C, 18 h, visual, determined once (n = 1)): 1
FIC, combination with CIP ([5]; peptide + ciprofloxacin, for the Indopt versions 1/8 MHb, 2–5 × 10^5 CFU/ml, 37°C, 18 h, visual, determined once (n = 1)): 0.53
FIC, combination with ERY ([5]; peptide + erythromycin, for the Indopt versions 1/8 MHb, 2–5 × 10^5 CFU/ml, 37°C, 18 h, visual, determined once (n = 1)): 0.53
FIC, combination with IMI ([5]; peptide + imipenem, for the Indopt versions 1/8 MHb, 2–5 × 10^5 CFU/ml, 37°C, 18 h, visual, determined once (n = 1)): 0.63
FIC, combination with KAN ([5]; peptide + kanamycin, for the Indopt versions 1/8 MHb, 2–5 × 10^5 CFU/ml, 37°C, 18 h, visual, determined once (n = 1)): 0.5
FIC, combination with MER ([5]; peptide + meropenem, for the Indopt versions 1/8 MHb, 2–5 × 10^5 CFU/ml, 37°C, 18 h, visual, determined once (n = 1)): 0.51
FIC, combination with PIP ([5]; peptide + piperacillin, for the Indopt versions 1/8 MHb, 2–5 × 10^5 CFU/ml, 37°C, 18 h, visual, determined once (n = 1)): 1
FIC, combination with PMB ([5]; peptide + polymyxin B, for the Indopt versions 1/8 MHb, 2–5 × 10^5 CFU/ml, 37°C, 18 h, visual, determined once (n = 1)): 0.63
FIC, combination with TET ([5]; peptide + tetracycline, for the Indopt versions 1/8 MHb, 2–5 × 10^5 CFU/ml, 37°C, 18 h, visual, determined once (n = 1)): 0.53
FIC, combination with TOB ([5]; peptide + tobramycin, for the Indopt versions 1/8 MHb, 2–5 × 10^5 CFU/ml, 37°C, 18 h, visual, determined once (n = 1)): 2
FIC against polymyxin B, MDR-PA919 [6]: 0.56
FIC against polymyxin B, MDR-PA253 [7]: 0.56

MIC [1]: 0.125 µM (≈ 0.15 µg/mL)
MIC [8]: 0.25 µM (≈ 0.301 µg/mL)
MIC [9]: 0.25 µM (≈ 0.301 µg/mL)
MIC ([2]; antibiotic alone, as listed in the FIC table, read-out: MIC against PA910 in μM (antibiotics, head of Table 4)): 0.13 µM
MIC ([2]; conventional antibiotics, microdilution, Mueller-Hinton broth, 2–5 10^5 CFU/ml, 18 h at 37°C, read visually, at least three repeats (n = 3), read-out: MIC PA 910): 0.125 µM (≈ 0.15 µg/mL)
MIC [3]: 0.125 µM (≈ 0.15 µg/mL)
MIC [10]: 0.25 µM (≈ 0.301 µg/mL)
MIC [4]: 0.125 µM (≈ 0.15 µg/mL)
Molecule: CC[C@H](C)CCCCC(=O)N[C@@H](CCN)C(=O)N[C@H](C(=O)N[C@@H](CCN)C(=O)N[C@H]1CCNC(=O)[C@H]([C@@H](C)O)NC(=O)[C@H](CCN)NC(=O)[C@H](CCN)NC(=O)[C@H](CC(C)C)NC(=O)[C@@H](Cc2ccccc2)NC(=O)[C@H](CCN)NC1=O)[C@@H](C)O [Polymyxin B] (X1-[Dab]T[Dab][Dab][Dab][dF]L[Dab][Dab]T; lactam 4-C (inferred); N-terminus assumed)

Molecule: Kanamycin
MIC [1]: 128 µM
MIC [8]: 128 µM
MIC [9]: 256 µM
MIC against PA910 in μM (antibiotics, head of Table 4) ([2]; antibiotic alone, as listed in the FIC table): 128 to 256 µM
MIC PA 910 ([2]; conventional antibiotics, microdilution, Mueller-Hinton broth, 2–5 10^5 CFU/ml, 18 h at 37°C, read visually, at least three repeats (n = 3)): 128 to 256 µM
MIC [3]: 64 µM
MIC PA 915 [10]: 256 to 512 µM
MIC [4]: >512 µM

Molecule: CN(C)[C@@H]1C(O)=C(C(N)=O)C(=O)[C@@]2(O)C(O)=C3C(=O)c4c(O)cccc4[C@@](C)(O)[C@H]3C[C@@H]12 [Tetracyclin]
MIC ([1]; Pseudomonas aeruginosa): 32 µM (≈ 14.2 µg/mL)
MIC ([8]; Pseudomonas aeruginosa): 16 µM (≈ 7.11 µg/mL)
MIC ([9]; Pseudomonas aeruginosa): > 512 µM
MIC ([2]; Pseudomonas aeruginosa, 18 h, antibiotic alone, as listed in the FIC table, read-out: MIC against PA910 in μM (antibiotics, head of Table 4)): 64 µM
MIC ([2]; Pseudomonas aeruginosa, conventional antibiotics, microdilution, Mueller-Hinton broth, 2–5 10^5 CFU/ml, 18 h at 37°C, read visually, at least three repeats (n = 3), read-out: MIC PA 910): 64 µM (≈ 28.4 µg/mL)
MIC ([3]; Pseudomonas aeruginosa, PA01WT): 8 µM (≈ 3.56 µg/mL)
MIC ([10]; Pseudomonas aeruginosa): 16 µM (≈ 7.11 µg/mL)
MIC ([4]; Pseudomonas aeruginosa): 32 µM (≈ 14.2 µg/mL)
